Experimental data reported in PubChem BioAssay (NCI).
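48-hour exposure; five concentrations; linearly interpolated endpoints. Abbreviation: GI50, concentration required for 50% inhibition of growth. TGI marks complete inhibition of growth.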

Assays:
Assay in all cases: NCI tumour cell line growth inhibition, 48 h
[1] = tested on: HS 578T breast
[2] = tested on: ACHN renal
[3] = tested on: PC-3 prostate
[4] = tested on: SK-OV-3 ovarian
[5] = tested on: MDA-MB-435
[6] = tested on: SF-295 CNS
[7] = tested on: UO-31 renal
[8] = tested on: SN12C renal
[9] = tested on: SK-MEL-5 melanoma
[10] = tested on: MCF7 breast
[11] = tested on: M14 melanoma
[12] = tested on: NCI/ADR-RES ovarian
[13] = tested on: UACC-257 melanoma
[14] = tested on: K-562 leukemia
[15] = tested on: 786-0 renal
[16] = tested on: HCT-116 colon
[17] = tested on: U251 CNS
[18] = tested on: A498 renal
[19] = tested on: NCI-H226 lung
[20] = tested on: SNB-75 CNS
[21] = tested on: OVCAR-5 ovarian
[22] = tested on: DU-145 prostate
[23] = tested on: MDA-MB-231 breast
[24] = tested on: KM12 colon
[25] = tested on: HOP-62 NSCLC
[26] = tested on: IGROV1 ovarian
[27] = tested on: OVCAR-8 ovarian
[28] = tested on: T-47D breast
[29] = tested on: HL-60(TB) leukemia
[30] = tested on: NCI-H23 lung
[31] = tested on: UACC-62 melanoma
[32] = tested on: OVCAR-3 ovarian
[33] = tested on: RPMI-8226 leukemia
[34] = tested on: RXF 393 renal
[35] = tested on: SK-MEL-2 melanoma
[36] = tested on: HOP-92 NSCLC
[37] = tested on: SW-620 colon
[38] = tested on: HCC-2998 colon
[39] = tested on: COLO 205 colon
[40] = tested on: A549 NSCLC
[41] = tested on: CCRF-CEM leukemia
[42] = tested on: SR leukemia
[43] = tested on: MALME-3M melanoma
[44] = tested on: NCI-H460 lung
[45] = tested on: HCT-15 colon
[46] = tested on: OVCAR-4 ovarian
[47] = tested on: SF-268 CNS
[48] = tested on: HT29 colon
[49] = tested on: SF-539 CNS
[50] = tested on: SNB-19 CNS
[51] = tested on: MOLT-4 leukemia
[52] = tested on: TK-10 renal
[53] = tested on: SK-MEL-28 melanoma
[54] = tested on: LOX IMVI melanoma
[55] = tested on: BT-549 breast
[56] = tested on: CAKI-1 renal
[57] = tested on: NCI-H522 lung

SMILES: COc1cccc(C2=C(c3cn(C)c4ccc(Cl)cc34)C(=O)NC2=O)c1
- GI50 [1]: 6.76 µM
- TGI [1]: > 25 µM
- GI50 [2]: 6.65 µM
- TGI [2]: > 19.6 µM
- GI50 [3]: 6.16 µM
- TGI [3]: > 19.6 µM
- GI50 [4]: 7.29 µM
- TGI [4]: > 22 µM
- GI50 [5]: 6.48 µM
- TGI [5]: > 16.4 µM
- GI50 [6]: 5.28 µM
- TGI [6]: > 15.1 µM
- GI50 [7]: 5.07 µM
- TGI [7]: > 17.4 µM
- GI50 [8]: 4.96 µM
- TGI [8]: 14.2 µM
- GI50 [9]: 3.63 µM
- TGI [9]: 8.35 µM
- GI50 [10]: 2.85 µM
- TGI [10]: > 25 µM
- GI50 [11]: 10.3 µM
- TGI [11]: > 25 µM
- GI50 [12]: 6.13 µM
- TGI [12]: 19.8 µM
- GI50 [13]: 9.86 µM
- TGI [13]: > 21.5 µM
- GI50 [14]: 6.54 µM
- TGI [14]: > 19.8 µM
- GI50 [15]: 6.5 µM
- TGI [15]: > 18.9 µM
- GI50 [16]: 3.8 µM
- TGI [16]: > 13.7 µM
- GI50 [17]: 5.94 µM
- TGI [17]: > 16.8 µM
- GI50 [18]: 4.03 µM
- TGI [18]: 12.5 µM
- GI50 [19]: 5.17 µM
- TGI [19]: 19.1 µM
- GI50 [20]: 3.1 µM
- TGI [20]: > 25 µM
- GI50 [21]: 15.3 µM
- TGI [21]: > 25 µM
- GI50 [22]: 10.9 µM
- TGI [22]: > 22.1 µM
- GI50 [23]: 8.3 µM
- TGI [23]: > 20.6 µM
- GI50 [24]: 4.95 µM
- TGI [24]: 11.4 µM
- GI50 [25]: 7.22 µM
- TGI [25]: 21.4 µM
- GI50 [26]: 7.62 µM
- TGI [26]: > 17.5 µM
- GI50 [27]: 6.61 µM
- TGI [27]: > 20.3 µM
- GI50 [28]: 4.19 µM
- TGI [28]: 17.4 µM
- GI50 [29]: 6.84 µM
- TGI [29]: 14.6 µM
- GI50 [30]: 7.15 µM
- TGI [30]: > 19.1 µM
- GI50 [31]: 5.67 µM
- TGI [31]: 12.8 µM
- GI50 [32]: 7.47 µM
- TGI [32]: > 17.2 µM
- GI50 [33]: 5.9 µM
- TGI [33]: > 20.4 µM
- GI50 [34]: 3.66 µM
- TGI [34]: 8.33 µM
- GI50 [35]: 7.24 µM
- TGI [35]: > 18 µM
- GI50 [36]: > 25 µM
- TGI [36]: > 25 µM
- GI50 [37]: 8.79 µM
- TGI [37]: > 25 µM
- GI50 [38]: 9.02 µM
- TGI [38]: > 23 µM
- GI50 [39]: 3.92 µM
- TGI [39]: 8.57 µM
- GI50 [40]: 6.84 µM
- TGI [40]: > 25 µM
- GI50 [41]: 4.39 µM
- TGI [41]: 15.7 µM
- GI50 [42]: 5.77 µM
- TGI [42]: > 18.6 µM
- GI50 [43]: 13.9 µM
- TGI [43]: > 20 µM
- GI50 [44]: 7.57 µM
- TGI [44]: > 19.1 µM
- GI50 [45]: 6.4 µM
- TGI [45]: > 25 µM
- GI50 [46]: 6.96 µM
- TGI [46]: > 25 µM
- GI50 [47]: 11.5 µM
- TGI [47]: > 25 µM
- GI50 [48]: 4.14 µM
- TGI [48]: > 24.1 µM
- GI50 [49]: 6.06 µM
- TGI [49]: > 15.9 µM
- GI50 [50]: 13.4 µM
- TGI [50]: > 25 µM
- GI50 [51]: 5.14 µM
- TGI [51]: > 18.8 µM
- GI50 [52]: 10.4 µM
- TGI [52]: > 23.8 µM
- GI50 [53]: 7.87 µM
- TGI [53]: > 20.5 µM
- GI50 [54]: 4.92 µM
- TGI [54]: > 16.1 µM
- GI50 [55]: 7.01 µM
- TGI [55]: > 19 µM
- GI50 [56]: 4.87 µM
- TGI [56]: 16.8 µM
- GI50 [57]: 5.48 µM
- TGI [57]: > 17.9 µM
